The values below come from patent US6689357B2, “Non-obligate predatory bacterium Burkholderia casidae and uses thereof” (Virginia Tech Intellectual Properties, Inc., priority 1997, dated 2004).

The test relates to B. casidae strain 2.2N. Kind of test: microbe, parasite or virus in culture. The conditions noted are these: for MIC: Burkholderia, 2.2N, read-out: Minimal Inhibitory Concentration; for strain 2.2N resistant or susceptible to the antibiotic: Sceptor Pseudomonas/Resistant MIC Panel; for Minimal Inhibitory Concentration: against B. casidae strain 2.2N. Format: cell-based, Burkholderia casidae.

Converted amounts (≈) assume the structure as drawn.

Turning to `NCC[C@H](O)C(=O)N[C@@H]1C[C@H](N)[C@@H](O[C@H]2O[C@H](CN)[C@@H](O)[C@H](O)[C@H]2O)[C@H](O)[C@H]1O[C@H]1O[C@H](CO)[C@@H](O)[C@H](N)[C@H]1O` [Amikacin], the MIC was > 64 µg/mL and the “strain 2.2N resistant or susceptible to the antibiotic” value (“strain 2.2N resistant or susceptible” for short) is “resistant”.

Turning to `CCN1CCN(C(=O)N[C@@H](C(=O)N[C@@H]2C(=O)N3C(C(=O)O)=C(CSc4nnnn4C)CS[C@H]23)c2ccc(O)cc2)C(=O)C1=O` [Cefoperazone], the MIC is > 16 µg/mL and the “strain 2.2N resistant or susceptible” value is listed as “resistant”.

As to `CO/N=C(\C(=O)N[C@@H]1C(=O)N2C(C(=O)O)=C(COC(C)=O)CS[C@H]12)c1csc(N)n1` [Cefotaxime], the MIC stood at 64 µg/mL (≈ 141 µM) and the “strain 2.2N resistant or susceptible” value is on record as “susceptible”.

With `CC(C)(O/N=C(\C(=O)N[C@@H]1C(=O)N2C(C(=O)[O-])=C(C[n+]3ccccc3)CS[C@H]12)c1csc(N)n1)C(=O)O` [Ceftazimine], the “strain 2.2N resistant or susceptible” value is reported as “susceptible” and the “Minimal Inhibitory Concentration” value stood at 8 micrograms/ml.

Consider `CO/N=C(\C(=O)N[C@@H]1C(=O)N2C(C(=O)O)=CCS[C@H]12)c1csc(N)n1` [Ceftizoxime], for which the MIC was 16 µg/mL (≈ 41.7 µM) and the “strain 2.2N resistant or susceptible” value is reported as “susceptible”.

Regarding `CO/N=C(\C(=O)N[C@@H]1C(=O)N2C(C(=O)O)=C(CSc3nc(=O)c(=O)[nH]n3C)CS[C@H]12)c1csc(N)n1` [Ceftriaxone], the MIC is 128 µg/mL (≈ 231 µM) and the “strain 2.2N resistant or susceptible” value was “susceptible”.

As for `C[C@@H](O)[C@H]1C(=O)N2C(C(=O)O)=C(SCCN=CN)C[C@H]12` [Imipenem], the MIC is 16 µg/mL (≈ 53.4 µM).

As for `CN(C)[C@@H]1C(O)=C(C(N)=O)C(=O)[C@@]2(O)C(O)=C3C(=O)c4c(O)cccc4[C@@](C)(O)[C@H]3C[C@@H]12` [Tetracycline], the MIC is > 8 µg/mL.

With `NC[C@H]1O[C@H](O[C@H]2[C@H](O)[C@@H](O[C@H]3O[C@H](CO)[C@@H](O)[C@H](N)[C@H]3O)[C@H](N)C[C@@H]2N)[C@H](N)C[C@@H]1O` [Tobramycin], the MIC was > 16 µg/mL and the “strain 2.2N resistant or susceptible” value is “resistant”.

In the case of `O=C(O)c1cn(C2CC2)c2cc(N3CCNCC3)c(F)cc2c1=O` [ciprofloxacin], the “strain 2.2N resistant or susceptible” value is given as “susceptible”.

Gentamycin: the “strain 2.2N resistant or susceptible” value is recorded as “resistant” and the “Minimal Inhibitory Concentration” value is listed as >16 micrograms/ml.

In the case of Tricarcillin/Clavulinic Acid, the “strain 2.2N resistant or susceptible” value is reported as “resistant” and the “Minimal Inhibitory Concentration” value is >128/2.

Turning to Trimethoprim/Sulfamethoxazole, the “strain 2.2N resistant or susceptible” value is reported as “susceptible” and the “Minimal Inhibitory Concentration” value is recorded as 4/76.
